Data on one compound can be found in PMC5554220, “A Novel Aldosterone Antagonist Limits Renal Injury in 5/6 Nephrectomy” (Scientific Reports, 2017).

The target in assay [1] is T1, human glucocorticoid receptor (hGR) (Homo sapiens, UniProt P04150).
T1 construct: expressed in transfected cells; host or cells: HEK293 cells
T1 sequence (P04150 1-777): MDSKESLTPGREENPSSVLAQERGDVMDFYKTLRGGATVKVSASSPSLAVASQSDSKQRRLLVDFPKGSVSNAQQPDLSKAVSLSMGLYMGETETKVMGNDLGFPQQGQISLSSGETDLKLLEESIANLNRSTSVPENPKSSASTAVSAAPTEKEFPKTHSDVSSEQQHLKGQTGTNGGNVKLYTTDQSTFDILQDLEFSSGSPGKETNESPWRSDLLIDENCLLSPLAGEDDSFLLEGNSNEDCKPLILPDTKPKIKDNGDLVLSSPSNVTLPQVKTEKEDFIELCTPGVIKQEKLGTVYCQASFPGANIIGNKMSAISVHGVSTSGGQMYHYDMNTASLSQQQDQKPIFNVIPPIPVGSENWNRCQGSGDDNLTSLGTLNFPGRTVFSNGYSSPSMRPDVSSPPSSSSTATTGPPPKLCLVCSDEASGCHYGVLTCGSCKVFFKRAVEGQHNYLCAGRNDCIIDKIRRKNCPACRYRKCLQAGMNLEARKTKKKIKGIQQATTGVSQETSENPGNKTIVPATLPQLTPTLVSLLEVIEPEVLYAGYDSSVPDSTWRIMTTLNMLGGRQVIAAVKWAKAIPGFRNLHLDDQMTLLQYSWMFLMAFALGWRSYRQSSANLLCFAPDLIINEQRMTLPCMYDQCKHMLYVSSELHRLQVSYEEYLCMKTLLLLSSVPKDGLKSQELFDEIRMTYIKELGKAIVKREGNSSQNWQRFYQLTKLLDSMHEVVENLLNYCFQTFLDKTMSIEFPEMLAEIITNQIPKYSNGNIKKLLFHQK
Nature of the assay: Radioligand binding, hGR expressed in HEK293 cells. As for the experimental part:
Affinity of ligands to the soluble receptor was determined using vacuum filtration methods, preparing soluble receptors in 96-well Falcon polystyrene plates (BD Biosciences, Bedford, MA) in a total volume of 250 μl. The hMR Sf9 lysate (approximately 20–25 μg protein in 20 μl) was incubated in the absence or presence of competing ligands with 10 μl of [1,2,6,7-3H] […] Binding studies for ligands for hPR and hAR were determined using [1,2,6,7-3H(N)] Progesterone (specific activity 103 Ci/mmol, at a final concentration 0.5 nM; NET381, NEN/Perkin Elmer Life Sciences, Boston, MA) and [17α-methyl-3H] Mibolerone, an enzymaticaly stable analog of testosterone (specific activity 76.8 Ci/mmol, final concentration 0.3 nM; NET919, NEN), respectively. Specific binding of 3H-progesterone for hPR and 3H-mibolerone for hAR was determined in the presence and absence of 1 μM mifepristone. Inhibition constants (Ki), were determined either from the Cheng-Prusoff equation[32], or directly using non-linear regression curve fitting to a three-parameter one-site competitive equation. Ki values obtained from individual concentration response curves were reported as the mean ± SEM. Protein was measured using colorimetric detection and quantification of bicinchoninic acid (BCA Protein Assay, Pierce, Rockford, IL). Cos-7L cells were cotransfected with expression vectors and a reporter plasmid responsive to all 3 nuclear hormone receptors. pBluescript II SK (+) (Stratagene, San Diego, CA) was included as a source of carrier DNA. The number of repetitions of full concentration response curves (n) represents values from at least two independent experiments for each condition. Concentration response curves were analyzed statistically using a four-parameter logistic equation (Hill equation for sigmoid curves). Similar methodology was adopted for the human glucocorticoid receptor (hGR) expressed in HEK293 cells.

Assay [2] concerns rats with 5/6 renal ablation (Nx). The assay can be described thus: Protocol 2 (late treatment), 5/6 renal ablation (Nx). The format is in vivo, male Munich-Wistar rats. As to conditions: Ly as an add-on to L, Day 150. From the text:
One-hundred forty-five adult male Munich-Wistar rats, obtained from a local facility at the Faculty of Medicine, University of São Paulo, weighing between 220 and 250 g, were used in this study. All experimental procedures were approved by the local Research Ethics Committee (Comissão de Ética para Análise de Projetos de Pesquisa do Hospital das Clínicas da Faculdade de Medicina da Universidade de São Paulo, CAPPesq, process n° 0905/09), and carried out following strictly our institutional guidelines and current international standards for manipulation and care of laboratory animals. Body weights and general conditions were assessed daily. Five-sixths renal ablation (Nx) was performed as a single-step procedure under anesthesia with ketamine 50 mg/kg and xylazine 10 mg/kg im. After ventral laparotomy, the right kidney was excised and two or three branches of the left renal artery were ligated, so as to promote infarction of two-thirds of the left kidney. The operation was invariably well tolerated. Sham-operated rats underwent anesthesia and manipulation of the renal pedicles without removal of renal mass. After surgery, rats received enrofloxacin and, upon recovery, had free access to tap water and regular rodent chow containing 0.5 Na and 22% protein (Nuvital Labs, Curitiba, Brazil), and were kept at 23 ± 1 °C and 60 ± 5% relative air humidity, under an artificial 12–12 hour light/dark cycle. Rats were then treated following two different experimental protocols (described later).
In Protocol 2, adult male Munich-Wistar rats were subjected to Nx as described earlier, and left untreated for two months. At this time, TCP and UalbV were assessed as described earlier. Rats with TCP ≤ 170 mmHg or UalbV ≤ 40 mg/day were excluded from the study. The remaining […] Nx rats were divided into four experimental groups: Nx + V (N = 14), untreated Nx rats; Nx + L (N = 15), receiving oral L, 50 mg/kg in drinking water; Nx + L + Eple (N = 14), receiving L and Eple (N = 14), 150 mg/kg/day; and Nx + L + Ly (N = 14), receiving L and Ly (20 mg/kg/day) as described before. A group of S rats (N = 16) was also included. All groups were followed for 90 days after treatments were started (150 days after nephrectomy), with monthly measurement of TCP and UalbV. At the end of this period, rats were anesthetized, blood was collected, and the renal tissue was perfusion-fixed and prepared for histomorphometric and immunohistochemical examination in the same manner as for Protocol 1.
Histomorphometric analysis was performed blindly by two independent observers. The extent of glomerular injury was estimated, in PAS-stained sections, by determining the percentage of glomeruli with sclerotic lesions. The fraction of the renal cortical area occupied by interstitial tissue (%INT) was estimated in 25 consecutive microscopic fields of Masson-stained sections by a point-counting technique, at a final magnification of 200X, under a 144-point grid.
Immunohistochemistry was performed on 4-μm-thick sections, mounted on glass slides precoated with 2% silane. Sections were deparaffinized and rehydrated by conventional techniques, then heated in citrate buffer for antigen retrieval and incubated overnight with the primary antibody at 4 °C (no antibody in negative control experiments). Primary antibodies used were: monoclonal mouse anti-rat ED-1 (Serotec, Oxford, UK); polyclonal rabbit anti-human AngII (Peninsula Laboratories, San Carlos, CA); and polyclonal rabbit anti-collagen I (Abcam, Cambridge, UK).
For ED-1 detection, sections were preincubated with 5% normal rabbit serum to prevent nonspecific binding, then incubated overnight at 4 °C with the primary antibody diluted in BSA at 1%. […]

On to `O=c1[nH]c2ccc(/C=C3\c4ccc(F)cc4COc4cc(F)ccc43)cc2[nH]1` [Ly], for which the Ki in assay [1] (hGR expressed in HEK293 cells, read-out: Mean Ki ± SEM hGR*) is 112 ± 18 nM. Further, in assay [1] (selectivity), the “Ratio of Ki's hGR*: hMR” value was 70. Also, in assay [2], the “Interstitial expansion (cortical interstitial area)” value was “reduced to levels significantly lower than in the Nx + V group”.

A word on the Ki: it is a measure of affinity in units of concentration, obtained from inhibition or displacement.
